For one data set, the system named is Pneumocystis carinii. The experiment in a line: Anti-P. carinii activity in immunosuppressed rat model (lung cyst counts). The settings on record: for anti-P. carinii activity / mean cyst counts when given intravenously (in words): Formula I amidoximes, intravenous; for anti-P. carinii activity when given orally (in words): Formula I series, orally by gavage once daily for 14 days; for % saline, ORAL DOSING / % saline, IV DOSING: Table 2; for % saline, ORAL DOSING: oral by gavage daily for 14 days @33 μmol/kg body weight; for % saline, IV DOSING: tail vein injection daily for 14 days at 22 mg/kg body weight. In kind it is in vivo, Sprague-Dawley rats. The procedure:
The activity of the compounds of Formula I against P. carinii was carried out according to an established method. See Tidwell, R. R., et al., J. Protozool. […] Agents Chemother. […] Agents Chemother. […] Briefly, male Sprague-Dawley rats (barrier raised, not certified virus-free) weighing 150-200 g each, were obtained (Hilltop Laboratories, Scottsdale, Pa.). Immediately upon arrival, the animals were caged individually and begun on a low protein (8%) diet and on drinking water containing tetracycline (0.5 mg/mL) and dexamethasone (1.0 μ/mL). This regimen was continued for eight weeks. At the beginning of the seventh week, animals were divided into groups of 8 or more, and the test compounds were administered for 14 days. Saline and pentamidine-treated groups were included as controls.
Animals were sacrificed at the end of the eighth week by chloroform inhalation. The left lung was weighed, ground through a No. 60 wire mesh screen, and suspended 1:10 (wt/vol) in 10 mM β-mercaptoethanol-Hanks' balanced salts solution (HBSS) without cations. Slides were prepared by spotting 5 μL of lung homogenate diluted 1:10 in HBSS with β-mercaptoethanol and allowed to air dry. The slides were stained with cresyl violet, and the cysts were counted by a blinded protocol. The number of cysts per gram of original lung tissue was calculated, and the groups were reported as the percentages of saline-treated controls.
The anti-P. carinii value for each compound is expressed as the percent of cysts in the treatment group as compared to the saline control group. Values are also compared to a positive control group consisting of animals treated intravenously with pentamidine.

The nature of data set [1]: Acute toxicity of single doses in normal rats. The settings on record: for time after injection to recovery / persistence of symptoms: single IV 160 μmol/kg; for overt toxic responses after single oral doses: single oral doses as high as 160 μmol/kg; for overt acute adverse reactions following single intravenous injections, compared to the bis-benzamidines: single tail vein injection; for time after injection to recovery: single IV 80 μmol/kg. Type of data set: in vivo.

The nature of data set [2]: In vitro metabolism by rat tissue homogenate 9000×g supernatants (HPLC). In kind it is in vitro ADME. The settings on record: for metabolism by rat liver homogenate 9000×g supernatants: 167 μM substrate plus cofactor solution, 37EC, 10 minutes, FIG. 1. How it is done: In vitro metabolism of diamidoximes 1, 3, 5, and 7 by rat liver homogenate 9000×g supernatants, post-mitochondrial 105,000×g supernatants or microsomal fractions were performed as previously described in B. J. Berger et al., Antimicrob. Agents and Chemotherapy 36, 1825-1831 (1992); B. J. Berger et al., J. Pharmacol. Experimental Therapeutics 256, 883-89 (1991). Briefly, adult male Sprague-Dawley rats, barrier raised, (Hilltop Laboratories, Scottsdale, Pa.) animals were given water and rat chow (Agway, Syracuse, N.Y.) ad libitum. The rats were euthanized by decapitation, the livers removed immediately, rinsed with 50 mM potassium phosphate buffer, pH 7.4, and placed on ice. All subsequent steps were performed at 4EC. The livers were minced, homogenized, and 9000×g supernatants, 105,000×g or 105,000×g microsomal pellets prepared. Each fraction was assayed for protein content as described in M. M. Bradford, Anal. Biochem. 72, 248-254 (1976) and stored at −80EC. Fractions from the rat kidneys, lungs, hearts and brains were prepared similarly.
Reaction mixtures consisted of 1.5 mL 50 mM potassium phosphate buffer, pH 7.4, 0.5 mL cofactor solution (2 mg/mL NADPH, 1.6 mg/mL MgCl2, 1.04 mg/mL glucose-6-phosphate and 2 units/mL glucose-6-phosphate dehydrogenase in 50 mM potassium phosphate buffer pH 7.4), 0.5 mL tissue homogenate and 0.5 mL of the appropriate diamidoxime substrate at a concentration of 167 μM. Reactions were started by adding substrate, then mixtures were incubated at 37EC in a shaking water bath for times shown in the figures. Reactions were terminated by extracting over C18 cartridges and assaying as described below.
(§1) Samples were extracted using solid phase extraction and assayed using high performance liquid chromatography (HPLC) by methods similar to those previously described in Berger et al. (1992) and Berger et al., (1991), supra. Briefly, samples spiked with 2,5-bis[4-(N-isopropylamidino)phenyl]furan dihydrochloride as the internal standard (IS) were extracted over activated C18 Bond Elut cartridges (Varian Associates, Sunnydale, Calif.), washed with water, 100% acetonitrile, then eluted with 75% acetonitrile/25% water containing 15 mm triethylamine and 35 mM acetic acid. The diamidoxime substrates elute in the 100% acetonitrile phase, while mono-amidine and diamidine products elute in the acetonitrile/water mixture containing triethylamine and acetic acid. Elutes were evaporated to dryness at 40EC under a gentle stream of nitrogen and resuspended in HPLC grade water.
Compounds were resolved using a Hewlett-Packard (Avondale, Pa.) model 1090 HPLC equipped with a HP 1050 variable wavelength detector set at 265 nm, a 4.6×250 mm Zorbax RX diisopropyl C8 column (Mac-Mod, Chadd's Ford, PA) maintained at 40EC and a Vectra 486/66U computer with HP Chemstations software. The mobile phase consisted of 15 mM triethylamine and 35 mM acetic acid in HPLC grade water for pump A, and 15 mM triethylamine and 35 mM acetic acid in 75% acetonitrile in water for pump B. The solvent flow rate was 1.5 mL/min, and the solvent gradient ran from 0% B to 25% B at 22 min, to 40% B at 25 min, then 90% B at 35 min. All solvents and reagents used for the assays were HPLC grade. Quantities of metabolites formed were calculated, using peak area rations of authentic standard, from standard addition curves generated by spiking standards into tissue homogenates or tissue culture medium.

The test system of another data set is BRL 3A hepatocytes. The experiment in a line: Metabolism in intact cultured cells (HPLC of culture supernatants). The settings on record: 10 μM substrate, 24 hours, 37EC; extracellular medium assayed; FIG. 4. In kind it is in vitro ADME. The procedure: Metabolic experiments with intact cultured cells were performed using the BRL 3A hepatocyte line, obtained from the UNC-Chapel Hill Lineberger Tissue Culture Facility. Cells were routinely cultured in Costar (Cambridge, Mass.) 25 cm^2 of tissue culture flasks at 37EC under moist 5% CO2 and 95% air in Ham's F-12 medium (Gibco, Gaithersburg, Md.) containing 5% fetal bovine serum (HyClone Laboratories Inc., Logan, Utah). Confluent cultures were treated with 0.25% trypsin solution (Sigma Chemical Co., ST. Louis Mo.), then approximately 2×10^5 cells/well subcultured into Costar 6-well tissue culture chambers and the cells allowed to grow to confluency. Ten mL fresh medium was added to each culture well and incubations were started by adding 100 μL amidoxime solution (prepared in sterile water) to a final concentration of 10 μM. Cell cultures were incubated at 37EC under moist 5% CO2 and 95% air for 24 hours, then aliquots of culture supernatants extracted and assayed for metabolites as described below. Similar metabolic experiments were performed with cultured J774 A.1 mouse monocyte-macrophage cells cultured in DMEM F-12 medium containing 10% fetal bovine serum and H9c2 rat heart myoblast cells cultured in DMEM H medium containing 10% fetal bovine serum.
as §1
Compounds were resolved using a Hewlett-Packard (Avondale, Pa.) model 1090 HPLC equipped with a HP 1050 variable wavelength detector set at 265 nm, a 4.6×250 mm Zorbax RX diisopropyl C8 column (Mac-Mod, Chadd's Ford, PA) maintained at 40EC and a Vectra 486/66U computer with HP Chemstations software. […] Quantities of metabolites formed were calculated, using peak area rations of authentic standard, from standard addition curves generated by spiking standards into tissue homogenates or tissue culture medium.

With `NC(=NO)c1ccc(OCCCOc2ccc(C(N)=NO)cc2)cc1.O=C(O)/C=C\C(=O)O.O=C(O)/C=C\C(=O)O` [Compound 5, 1,3-bis(4′-(4-hydroxyamidino)phenoxy)propanedi-hemimaleinate], in the data set with Pneumocystis carinii, the “anti-P. carinii activity / mean cyst counts when given intravenously (in words)” value is on record as “significantly reduced compared to saline controls”; the “anti-P. carinii activity when given orally (in words)” value is “most active”; the “% saline, ORAL DOSING” value worked out at 2.25 % saline; the “% saline, IV DOSING” value came to 0.03 % saline. Besides, the “observed acute toxicity after single intravenous injection” value (shortened to “observed acute toxicity”) in data set [1] (normal rats, 160 μmol/kg) is on record as “only minor ataxia and/or hypoactivity”. In data set [1] (normal rats, 20, 40 or 80 μmol/kg), the “observed acute toxicity” value is listed as “no overt toxicity”. For the same compound, in data set [1] (normal rats), the “time after injection to recovery / persistence of symptoms” value came to 5 min; the “overt toxic responses after single oral doses” value (shortened to “overt toxic responses”) is on record as “No overt toxic responses”; the “overt acute adverse reactions following single intravenous injections, compared to the bis-benzamidines” value is on record as “greatly reduced”. In data set [2], the “metabolism by rat liver homogenate 9000×g supernatants” value is listed as “metabolized similarly”. In the data set with BRL 3A hepatocytes, the “metabolism in intact BRL 3A hepatocytes” value is listed as “metabolized predominantly to the corresponding diamidine”.
For the compound `NC(=NO)c1ccc(OCCCCCOc2ccc(C(N)=NO)cc2)cc1.O=C(O)/C=C\C(=O)O.O=C(O)/C=C\C(=O)O` [Compound 1, 1,5-bis(4′-(N-hydroxyamidino)phenoxy)pentanedi-hemimaleinate], in the data set on Pneumocystis carinii, the “anti-P. carinii activity / mean cyst counts when given intravenously (in words)” value is recorded as “significantly reduced compared to saline controls”; the “% saline, ORAL DOSING” value stood at 19.27 % saline; the “% saline, IV DOSING” value is given as 0.15 % saline. For the same compound, the “observed acute toxicity” value in data set [1] (normal rats, 80 μmol/kg) is “Minor toxic responses, including barely observable hindleg ataxia and slight hypoactivity”. Besides, the “observed acute toxicity” value in data set [1] (normal rats, bolus injections above 120 μmol/kg) is “severe dyspnea and profound hypoactivity”. For the same compound, the “observed acute toxicity” value in data set [1] (normal rats, from 20 to 60 μmol/kg) is “no observable adverse reactions”. For the same compound, in data set [1] (normal rats), the “time after injection to recovery” value amounted to 5 min; the “overt toxic responses” value is listed as “No overt toxic responses”; the “overt acute adverse reactions following single intravenous injections, compared to the bis-benzamidines” value is “greatly reduced”. Besides, the “metabolism by rat liver homogenate 9000×g supernatants” value in data set [2] was “forming large quantities of the monoamidine-monoamidoxime derivative, and smaller amounts of pentamidine”. The “metabolism by 9000×g supernatants of homogenates of rat liver, kidney, lung and heart” value in data set [2] (FIG. 3A-3D) is given as “into its amidine analog pentamidine”. Further, in the data set with BRL 3A hepatocytes, the “metabolism in intact BRL 3A hepatocytes” value is listed as “metabolized predominantly to the corresponding diamidine”.
For the compound `COc1cc(C(N)=NO)ccc1OCCCOc1ccc(C(N)=NO)cc1OC.O=C(O)/C=C\C(=O)O.O=C(O)/C=C\C(=O)O` [Compound 7, 1,3-bis(2′-methoxy-4′-(N-hydroxyamidino)phenoxy)propanedi-hemimaleinate], in the data set with Pneumocystis carinii, the “anti-P. carinii activity / mean cyst counts when given intravenously (in words)” value is given as “significantly reduced compared to saline controls”; the “anti-P. carinii activity when given orally (in words)” value is “most active”; the “% saline, ORAL DOSING” value is on record as 3.71 % saline; the “% saline, IV DOSING” value was found to be 0.03 % saline. Further, the “observed acute toxicity” value in data set [1] (normal rats, 80 μmol/kg) was “only very minor hypoactivity and dyspnea”. Also, the “observed acute toxicity” value in data set [1] (normal rats, 160 μmol/kg) is “pronounced hypoactivity, dyspnea, cyanosis, and increased salivation and lacrimation”. Also, in data set [1] (normal rats, 20 or 40 μg/kg), the “observed acute toxicity” value is reported as “no observable adverse effects”. Also, in data set [1] (normal rats), the “time after injection to recovery” value was 5 min; the “time after injection to recovery / persistence of symptoms” value is given as “approximately 10 minutes”; the “overt toxic responses” value was “No overt toxic responses”; the “overt acute adverse reactions following single intravenous injections, compared to the bis-benzamidines” value is given as “greatly reduced”. Further, the “metabolism by rat liver homogenate 9000×g supernatants” value in data set [2] was “metabolized similarly”. For the same compound, the “metabolism in intact BRL 3A hepatocytes” value in the data set on BRL 3A hepatocytes is listed as “metabolized predominantly to the corresponding diamidine”.
Consider `NC(=NO)c1ccc(OCCCCOc2ccc(C(N)=NO)cc2)cc1.O=C(O)/C=C\C(=O)O.O=C(O)/C=C\C(=O)O` [Compound 3, 1,4-bis(4′-(N-hydroxyamidino)phenoxy)butanedi-maleinate], for which, in the data set on Pneumocystis carinii, the “anti-P. carinii activity / mean cyst counts when given intravenously (in words)” value was “significantly reduced compared to saline controls”; the “anti-P. carinii activity when given orally (in words)” value is recorded as “most active”; the “% saline, ORAL DOSING” value turned out to be 1.43 % saline; the “% saline, IV DOSING” value was 0.12 % saline. For the same compound, the “metabolism by rat liver homogenate 9000×g supernatants” value in data set [2] was “metabolized similarly”. For the same compound, in the data set on BRL 3A hepatocytes, the “metabolism in intact BRL 3A hepatocytes” value is given as “metabolized predominantly to the corresponding diamidine”.

Values taken from patent US6423737B1, “Benzamidoxime prodrugs as antipneumocystic agents” (The University of North Carolina at Chapel Hill, priority 1995, dated 2002).
